Measured values reported in patent US8501959B2, “Cycloalkane[B]indole antagonists of prostaglandin D2 receptors” (Panmira Pharmaceuticals, LLC, priority 2008, dated 2013).

How the values were obtained:
[1] = target: T1, human DP2 receptor (Homo sapiens, UniProt Q9Y5Y4); assay: DP2/CRTH2 binding assay (radioligand [3H]PGD2); settings: [3H]PGD2 binding, membranes of HEK293 cells expressing recombinant human DP2; read-out: hDP2
T1 construct: expressed in transfected cells
T1 sequence (Q9Y5Y4 1-395): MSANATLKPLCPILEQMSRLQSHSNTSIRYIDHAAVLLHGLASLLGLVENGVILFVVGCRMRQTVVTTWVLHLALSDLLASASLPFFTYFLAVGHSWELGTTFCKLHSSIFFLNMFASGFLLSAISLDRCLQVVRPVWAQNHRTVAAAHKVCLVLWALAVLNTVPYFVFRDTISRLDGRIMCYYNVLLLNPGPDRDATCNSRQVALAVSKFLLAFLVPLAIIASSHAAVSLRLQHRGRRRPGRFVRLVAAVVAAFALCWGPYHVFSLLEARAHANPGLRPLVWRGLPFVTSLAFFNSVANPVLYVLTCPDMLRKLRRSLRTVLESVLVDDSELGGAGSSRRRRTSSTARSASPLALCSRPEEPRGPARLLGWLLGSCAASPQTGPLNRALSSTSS
Procedure: The ability of a compound to bind to the human DP2 receptor is assessed via a radioligand binding assay using [^3H]PGD2. HEK293 cells stably expressing recombinant human DP2 are resuspended in 10 mM Hepes, 7.4 containing 1 mM DTT, lysed and centrifuged at 75,000×g to pellet the membranes. The membranes are resuspended in 10 mM Hepes, 7.4 containing 1 mM DTT and 10% glycerol to approximately 5 mg protein/ml. Membranes (2-10 μg protein/well) are incubated in 96-well plates with 1 nM [^3H]PGD2 and test compound in Assay Buffer (50 mM Hepes, 10 mM MnCl2, 1 mM EDTA, plus or minus 0.2% human serum albumin, pH 7.4) for 60 minutes at room temperature. The reactions are terminated by rapid filtration through Whatman GF/C glass fibre filter plates. The filter plates were pre-soaked in 0.33% polythylenimine for 30 minutes at room temperature then washed in Wash Buffer (50 mM Hepes, 0.5 M NaCl pH 7.4) prior to harvesting. After harvesting, the filter plates are washed 3 times with 1 ml cold Wash Buffer then dried. Scintillant is then added to the plates and the radioactivity retained on the filters is determined on a Packard TopCount (Perkin Elmer). Specific binding is determined as total radioactive binding minus non-specific binding in the presence of 10 μM PGD2. IC50s were determined using GraphPad prism analysis of drug titration curves.

[2] = target: T2, human DP1 receptor (Homo sapiens, UniProt Q13258); assay: DP1 binding assay (radioligand [3H]BWA868C); settings: [3H]BWA868C binding, human platelet membranes; read-out: hDP1
T2 construct: tissue Biological Specialty Corporation; host or cells: human platelets, membrane preparation
T2 sequence (Q13258 1-359): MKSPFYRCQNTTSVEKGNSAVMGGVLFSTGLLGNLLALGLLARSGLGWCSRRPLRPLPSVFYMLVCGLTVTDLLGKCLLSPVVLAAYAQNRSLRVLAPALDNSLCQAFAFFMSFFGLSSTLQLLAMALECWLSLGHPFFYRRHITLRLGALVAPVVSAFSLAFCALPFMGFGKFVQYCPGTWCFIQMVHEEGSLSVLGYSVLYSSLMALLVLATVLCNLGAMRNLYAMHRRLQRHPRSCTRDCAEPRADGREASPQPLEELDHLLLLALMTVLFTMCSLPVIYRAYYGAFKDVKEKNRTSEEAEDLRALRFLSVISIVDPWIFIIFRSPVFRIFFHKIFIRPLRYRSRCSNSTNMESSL
Procedure: The ability of a compound to bind to the human DP1 receptor was evaluated via a radioligand membrane binding assay using the DP1 selective synthetic ligand [^3H]BWA868C. Packed human platelets (Biological Specialty Corporation), were resuspended in 6 volumes of Hepes/HBSS buffer (10 mM Hepes, 1 mM DTT in Hanks Balanced Salt Solution (HBSS), lysed and centrifuged at 75,000×g to pellet the membranes. Membranes were resuspended in Hepes/HBSS buffer to approximately 12 mg protein/ml. Membranes (20 μg protein/well) are incubated in 96-well plates with 2 nM [^3H]BWA868C and test compound in Assay Buffer (50 mM Hepes, 10 mM MnCl2, 1 mM EDTA, plus or minus 0.2% human serum albumin, pH 7.4) for 60 minutes at room temperature. The reactions are terminated by rapid filtration through Whatman GF/C glass fibre filter plates. The filter plates were pre-soaked in 0.33% polethylenimine for 30 minutes at room temperature then washed in Wash Buffer (50 mM Hepes, 0.5 M NaCl pH 7.4) prior to harvesting. After harvesting, the filter plates are washed 3 times with 1 ml cold Wash Buffer then dried. Scintillant is then added to the plates and the radioactivity retained on the filters is determined on a Packard TopCount (Perkin Elmer). Specific binding is determined as total radioactive binding minus non-specific binding in the presence of 10 μM BW A868C. IC50s were determined using GraphPad prism analysis of drug titration curves.

Row | SMILES | IC50 [1] [nM] | IC50 [2] [nM]
1 | CC(C)(O)CN(C1CCc2c(c3ccccc3n2CCC(=O)O)C1)S(=O)(=O)c1ccc(F)cc1 (centres unmarked) [Compound 1-3, 3-{3-[(4-Fluoro-benzenesulfonyl)-(2-hydroxy-2-methyl-propyl)-amino]-1,2,3,4-tetrahydro-carbazol-9-yl}-propionic acid] | > 1000 | > 1000
2 | NC(=O)CN(C1CCc2c(c3ccccc3n2CCC(=O)O)C1)S(=O)(=O)c1ccc(F)cc1 (centres unmarked) [Compound 1-5, 3-{3-[Carbamoylmethyl-(4-fluoro-benzenesulfonyl)-amino]-1,2,3,4-tetrahydro-carbazol-9-yl}-propionic acid] | > 1000 | > 1000
3 | O=C(O)CCn1c2c(c3ccccc31)CC(N(CC(=O)O)S(=O)(=O)c1ccc(F)cc1)CC2 (centres unmarked) [Compound 1-6, 3-{3-[Carboxymethyl-(4-fluoro-benzenesulfonyl)-amino]-1,2,3,4-tetrahydro-carbazol-9-yl}-propionic acid] | > 1000 | > 1000
4 | CC(C)(O)CCn1c2c(c3ccccc31)CC(N(CC(C)(C)O)S(=O)(=O)c1ccc(F)cc1)CC2 (centres unmarked) [Compound 1-4, 4-FluoroN-[9-(3-hydroxy-3-methyl-butyl)-2,3,4,9-tetrahydro-1H-carbazol-3-yl]-N-(2-hydroxy-2-methyl-propyl)-benzenesulfonamide] | > 1000 | > 1000

The remaining lines, values ahead:

Row | IC50 [1] [nM] | IC50 [2] [nM] | SMILES
5 | < 300 | > 1000 | O=C(O)CN(C1CCc2c(c3ccccc3n2CC(=O)O)C1)S(=O)(=O)c1ccc(F)cc1 (centres unmarked) [Compound 1-1, {3-[Carboxymethyl-(4-fluoro-benzenesulfonyl)-amino]-1,2,3,4-tetrahydro-carbazol-9-yl}-acetic acid]
6 | > 1000 | > 1000 | CC(C)(O)CCn1c2c(c3ccccc31)CC(N(CC(=O)O)S(=O)(=O)c1ccc(F)cc1)CC2 (centres unmarked) [Compound 1-2, {(4-Fluoro-benzenesulfonyl)-[9-(3-hydroxy-3-methyl-butyl)-2,3,4,9-tetrahydro-1H-carbazol-3-yl]-amino}-acetic acid]
7 | > 300 | > 1000 | O=C(O)CCn1c2c(c3ccccc31)C[C@H](NS(=O)(=O)c1ccc(F)cc1)CC2 [Ramatroban, reference compound]
